The record followed here is US20240299486A1, “ADDRESSING INJECTION SITE REACTIONS ASSOCIATED WITH THE ADMINISTRATION OF ELAMIPRETIDE” (STEALTH BIOTHERAPEUTICS INC., priority 2022, published 2024).

Molecules are shown by their SMILES. Entries after “also recorded” stand apart in the source; their conditions may differ.

Assay [1] relates to healthy subjects. Put plainly: Phase 1 crossover study: clinically assessed injection site reactions. Particulars: for Clinically assessed Erythema or redness, (%) of Reported Reactions / Clinically assessed Erythema or redness, Number of Reported Reactions / Clinically assessed Induration or swelling, (%) of Reported Reactions / Clinically assessed Induration or swelling, Number of Reported Reactions / Clinically assessed Pain or tenderness, (%) of Reported Reactions / Clinically assessed Pain or tenderness, Number of Reported Reactions / Clinically assessed Pruritis, (%) of Reported Reactions / Clinically assessed Pruritis, Number of Reported Reactions: 60 mg SQ elamipretide with or without the intervention, across all timepoints, all participants, n = 80; for Overall effect of the intervention on ISRs compared to elamipretide alone: clinical and self-assessments, 60 mg SQ elamipretide, vs Arm 1 (no intervention). As for the experimental part:
(§1) • This Phase 1, open-label, 6-arm crossover study included 10 healthy subjects ≥18 and ≤65 years of age. • All subjects received 60 mg of SQ elamipretide to alternating quadrants of the abdomen on each of 6 occasions (FIG. 3), with or without the interventions listed in Table 2. • For each treatment arm, ISR clinical and self-assessments were performed pre-elamipretide administration and at 0.5, 1, 2, 4, 6, 12, 24, and 48 hours after each elamipretide dose. • Blood samples for plasma concentrations of elamipretide and its metabolites were also collected pre-dose and at 0.25, 0.5, 1, 2, 4, and 6 hours post-elamipretide dose. • Primary endpoints consisted of comparisons of the grading from the clinical assessments and the self-assessments of each ISR parameter following administration of elamipretide with each separate intervention versus that of elamipretide alone. • Secondary endpoints consisted of comparison of various pharmacokinetic (PK) parameters and adverse events following administration of elamipretide with each separate intervention versus that of elamipretide alone.
(§2) After the screening period (up to 28 days) in this phase 1, open-label, 4-week, 6-part, crossover study, all eligible subjects received 60 mg (0.75 mL) of SC elamipretide to alternating quadrants of the abdomen on each of 6 occasions, with or without potential ISR interventions. The first treatment arm (Arm 1) commenced on Day 1 with administration of elamipretide only, followed by the remaining treatment arms (Arms 2-6) with the following potential mitigations: mometasone furoate, 0.1% ointment, applied once under a hydrocolloid occlusive dressing (DuoDERM Extra Thin) 7 days prior to elamipretide administration (Arm 2); ice application at the elamipretide injection site 5 minutes pre- and post-drug administration (Arm 3); tacrolimus 0.1% ointment applied 15 minutes pre-drug dosing (Arm 4); doxepin 5% cream applied 15 minutes pre-elamipretide administration (Arm 5); and diphenhydramine 50 mg orally taken 2 hours prior to administration (Arm 6). For each treatment arm, blood samples for plasma concentrations of elamipretide and its metabolites were collected pre-dose and at 0.25, 0.5, 1, 2, 4, and 6 hours post-elamipretide dose. Vital signs were recorded pre-dose and at 0.5 and 6 hours post-elamipretide administration. ISR clinical and self-assessments were performed pre-elamipretide administration and at 0.5, 1, 2, 4, 6, 12, 24, and 48 hours after each elamipretide dose. Injection sites were photographed at 0.5, 1, 2, 4, and 12 hours post-elamipretide dose.
(§3) The primary endpoints of this study were comprised of the following efficacy measures: clinical assessments and subject self-assessments. Specifically, the primary endpoints consisted of comparisons of the grading of each ISR parameter following administration of elamipretide with each separate intervention versus the grading of each ISR parameter following administration of elamipretide alone. For clinical assessments, the clinical staff used a standard procedure adapted from the Division of Aids Table for Grading the Severity of Adult and Pediatric Adverse Events to score pain, erythema, induration, and pruritus using a 4-point scale based on severity (0=None, 1=Mild, 2=Moderate, 3=Severe, 4=Potentially Life Threatening). The self-assessments were based on a questionnaire to determine how bothered the patient was following each injection of elamipretide and included the following parameters: pain, burning sensation, cold sensation, itching, redness, swelling, and bruising.
(§4) All statistical analyses were performed using SAS GRID Linux/SAS Studio (Version 9.4, or higher). PK parameters for elamipretide and its metabolites, M1 and M2, were summarized using descriptive statistics.

Assay [2] has as its system healthy subjects. Put plainly: Phase 1 crossover study: self-assessed injection site reactions. Conditions: 60 mg SQ elamipretide with or without the intervention, across all timepoints, all participants, n = 80. It counts as in vivo, human. As for the experimental part:
as §1, §2, §3, §4

For a further assay, the target named is T1, MRGPRX2 receptor (Homo sapiens, UniProt Q96LB1).
T1 construct: host or cells: Chem-1 cells (G418-selected)
T1 sequence (Q96LB1 1-330): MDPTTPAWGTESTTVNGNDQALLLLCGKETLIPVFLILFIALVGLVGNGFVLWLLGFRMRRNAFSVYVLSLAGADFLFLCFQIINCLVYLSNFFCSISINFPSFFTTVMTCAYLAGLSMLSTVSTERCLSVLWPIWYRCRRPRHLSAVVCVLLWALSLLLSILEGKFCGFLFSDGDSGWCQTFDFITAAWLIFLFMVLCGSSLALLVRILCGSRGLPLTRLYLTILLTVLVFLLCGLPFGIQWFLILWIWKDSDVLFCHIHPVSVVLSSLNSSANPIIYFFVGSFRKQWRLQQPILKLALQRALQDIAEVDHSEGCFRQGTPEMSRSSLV
In words: Fluo-4 calcium assay in MRGPRX2 expressing Chem-1 cells. Format: cell-based.

The mark [3] stands for this setting: clinical assessment, vs elamipretide alone.

Take `C[C@@H]1C[C@H]2[C@@H]3CCC4=CC(=O)C=C[C@]4(C)[C@@]3(Cl)[C@@H](O)C[C@]2(C)[C@@]1(OC(=O)c1ccco1)C(=O)CCl` [Mometasone furoate]: in the assay with healthy subjects [1], the “Clinically assessed Erythema or redness, (%) of Reported Reactions” value is “(37.5) %”; the “Clinically assessed Erythema or redness, Number of Reported Reactions” value turned out to be 30; the “Clinically assessed Induration or swelling, (%) of Reported Reactions” value was “(10.0) %”; the “Clinically assessed Induration or swelling, Number of Reported Reactions” value is listed as 8. For the same molecule, in the assay on healthy subjects [1], the “Clinically assessed Pain or tenderness, (%) of Reported Reactions” value is listed as “(8.8) %”; the “Clinically assessed Pain or tenderness, Number of Reported Reactions” value turned out to be 7; the “Clinically assessed Pruritis, (%) of Reported Reactions” value (“Clinically assessed Pruritis, (%)” for short) is “(2.5) %”; the “Clinically assessed Pruritis, Number of Reported Reactions” value (from here on “Clinically assessed Pruritis, Number”) came out at 2. In the assay on healthy subjects [1], the “Overall effect of the intervention on ISRs compared to elamipretide alone” value (“Overall effect … compared to elamipretide alone” for short) is “most reduced; also recorded: favorably mitigate”. In addition, the “Overall effect … compared to elamipretide alone” value with healthy subjects [1] (listed as mometasone furoate ointment) was “Improvement”. For the same molecule, in the assay on healthy subjects [1] (setting [3]), the “incidence of induration at 0.5 hours post-elamipretide dose” value is “significantly reduced incidence”, the “incidence of induration at 1 hour post-elamipretide dose” value is recorded as “Trends to significance in reduction” and the “pruritus at 0.5 hours post-dose” value is reported as “Trends to significance in reduction”. Also, in the assay on healthy subjects [2], the “Self-assessed Bruising, (%) of Reported Reactions” value (shortened to “Self-assessed Bruising, (%)”) is “(1.3) %”; the “Self-assessed Bruising, Number of Reported Reactions” value (“Self-assessed Bruising, Number” for short) is recorded as 1; the “Self-assessed Burning sensation, (%) of Reported Reactions” value (shortened to “Self-assessed Burning sensation, (%)”) was “(8.8) %”; the “Self-assessed Burning sensation, Number of Reported Reactions” value (from here on “Self-assessed Burning sensation, Number”) was found to be 7. In the assay on healthy subjects [2], the “Self-assessed Cold Sensation, Number of Reported Reactions” value (“Self-assessed Cold Sensation, Number” below) is recorded as 0.0; the “Self-assessed Itching, (%) of Reported Reactions” value (“Self-assessed Itching, (%)” below) is on record as “(6.3) %”; the “Self-assessed Itching, Number of Reported Reactions” value (from here on “Self-assessed Itching, Number”) came out at 5; the “Self-assessed Pain, (%) of Reported Reactions” value (from here on “Self-assessed Pain, (%)”) is “(8.8) %”. Moreover, in the assay on healthy subjects [2], the “Self-assessed Pain, Number of Reported Reactions” value (“Self-assessed Pain, Number” below) is reported as 7; the “Self-assessed Redness, (%) of Reported Reactions” value (from here on “Self-assessed Redness, (%)”) is listed as “(41.3) %”; the “Self-assessed Redness, Number of Reported Reactions” value (shortened to “Self-assessed Redness, Number”) was 33; the “Self-assessed Swelling, (%) of Reported Reactions” value (shortened to “Self-assessed Swelling, (%)”) was “(11.3) %”. Besides, the “Self-assessed Swelling, Number of Reported Reactions” value (“Self-assessed Swelling, Number” for short) with healthy subjects [2] was found to be 9.

For the molecule `CN(C)CCC=C1c2ccccc2COc2ccccc21` [Doxepin], in the assay on healthy subjects [1], the “Clinically assessed Erythema or redness, (%) of Reported Reactions” value was “(27.5) %”; the “Clinically assessed Erythema or redness, Number of Reported Reactions” value is recorded as 22; the “Clinically assessed Induration or swelling, (%) of Reported Reactions” value was “(21.3) %”; the “Clinically assessed Induration or swelling, Number of Reported Reactions” value amounted to 17. Further, in the assay with healthy subjects [1], the “Clinically assessed Pain or tenderness, (%) of Reported Reactions” value is given as “(12.5) %”; the “Clinically assessed Pain or tenderness, Number of Reported Reactions” value is given as 10; the “Clinically assessed Pruritis, (%)” value is recorded as “(12.5) %”; the “Clinically assessed Pruritis, Number” value amounted to 10. Further, the “Overall effect … compared to elamipretide alone” value in the assay on healthy subjects [1] was “little impact”. In the assay on healthy subjects [2], the “Self-assessed Bruising, (%)” value is recorded as “(0.0) %”; the “Self-assessed Bruising, Number” value is 0; the “Self-assessed Burning sensation, (%)” value is recorded as “(7.5) %”; the “Self-assessed Burning sensation, Number” value stood at 6. In the assay with healthy subjects [2], the “Self-assessed Cold Sensation, Number” value was found to be 0.0; the “Self-assessed Itching, (%)” value is reported as “(12.5) %”; the “Self-assessed Itching, Number” value is listed as 10; the “Self-assessed Pain, (%)” value is “(8.8) %”. In the assay on healthy subjects [2], the “Self-assessed Pain, Number” value is 7; the “Self-assessed Redness, (%)” value is given as “(35.0) %”; the “Self-assessed Redness, Number” value is 28; the “Self-assessed Swelling, (%)” value is recorded as “(21.3) %”. Further, the “Self-assessed Swelling, Number” value with healthy subjects [2] is recorded as 17.

In the case of `CCNC(=O)[C@@H]1CCCN1C(=O)[C@H](CCCNC(=N)N)NC(=O)[C@H](CC(C)C)NC(=O)[C@@H](CC(C)C)NC(=O)[C@H](Cc1ccc(O)cc1)NC(=O)[C@H](CO)NC(=O)[C@H](Cc1c[nH]c2ccccc12)NC(=O)[C@H](Cc1c[nH]cn1)NC(=O)[C@@H]1CCC(=O)N1` [leuprolide], the “activation of the MRGPRX2 expressing cells (calcium mobilization)” value at MRGPRX2 receptor (Chem-1 cells, Fluo-4) is “dose dependent activation”.

In the case of `C=CC[C@@H]1/C=C(\C)C[C@H](C)C[C@H](OC)[C@H]2O[C@@](O)(C(=O)C(=O)N3CCCC[C@H]3C(=O)O[C@H](/C(C)=C/[C@@H]3CC[C@@H](O)[C@H](OC)C3)[C@H](C)[C@@H](O)CC1=O)[C@H](C)C[C@@H]2OC` [Tacrolimus], in the assay with healthy subjects [1], the “Clinically assessed Erythema or redness, (%) of Reported Reactions” value was “(31.3) %”; the “Clinically assessed Erythema or redness, Number of Reported Reactions” value stood at 25; the “Clinically assessed Induration or swelling, (%) of Reported Reactions” value was “(22.5) %”; the “Clinically assessed Induration or swelling, Number of Reported Reactions” value was 18. In the assay on healthy subjects [1], the “Clinically assessed Pain or tenderness, (%) of Reported Reactions” value is recorded as “(3.8) %”; the “Clinically assessed Pain or tenderness, Number of Reported Reactions” value turned out to be 3; the “Clinically assessed Pruritis, (%)” value was “(15.0) %”; the “Clinically assessed Pruritis, Number” value stood at 12. Besides, in the assay on healthy subjects [1], the “Overall effect … compared to elamipretide alone” value is recorded as “little impact”. Also, in the assay with healthy subjects [1] (listed as tacrolimus), the “Overall effect … compared to elamipretide alone” value was “most reduced”. Further, the “Overall effect … compared to elamipretide alone” value with healthy subjects [1] (listed as tacrolimus ointment) is on record as “Improvement”. Moreover, in the assay on healthy subjects [2], the “Self-assessed Bruising, (%)” value is listed as “(10.0) %”; the “Self-assessed Bruising, Number” value is listed as 8; the “Self-assessed Burning sensation, (%)” value is “(1.3) %”; the “Self-assessed Burning sensation, Number” value was 1. In the assay with healthy subjects [2], the “Self-assessed Cold Sensation, Number” value is reported as 0.0; the “Self-assessed Itching, (%)” value is “(15.0) %”; the “Self-assessed Itching, Number” value was found to be 12; the “Self-assessed Pain, (%)” value is recorded as “(3.8) %”. In the assay on healthy subjects [2], the “Self-assessed Pain, Number” value turned out to be 3; the “Self-assessed Redness, (%)” value is reported as “(25.0) %”; the “Self-assessed Redness, Number” value turned out to be 20; the “Self-assessed Swelling, (%)” value is listed as “(18.8) %”. In addition, in the assay on healthy subjects [2], the “Self-assessed Swelling, Number” value was determined as 15.

For `O=c1c(O)c(-c2ccc(O)c(O)c2)oc2cc(O)cc(O)c12` [quercetin, 3,3′,4′,5,7-pentahydroxyflavone], the “inhibition of the activation of the MRGPRX2 receptor caused by elamipretide” value at MRGPRX2 receptor (100 μM of elamipretide, various concentrations of quercetin) is “in a dose-dependent manner, inhibit the activation; also recorded: inhibits activation of MRGPRX2”.
